Source: US9492456B2, “Valomaciclovir polymorphs” (EPIPHANY BIOSCIENCES, INC., priority 2007, dated 2016)
“Also recorded” adds a separate entry of the source. Like-named read-outs stand apart in the source and are kept apart here. One block for each compound: values may come before it.

Experiments:
[1] = Particle and agglomerate size by polarized light microscopy in silicone oil; assay type: physicochemical
From the text: The particle size of the solid product of this invention can be evaluated in silicone oil using polarized light microscopy. In some embodiments, Polymorph A enriched valomaciclovir has particle size range from about 10 to about 300 microns as measured using this system.
Polarized light microscopy was used to evaluate the particle size range of the recrystallized samples in silicone oil. The particle size range is reported in Table 4 along with the powder flow data.
A Zeiss Universal microscope configured with a polarized visible light source and polarizable analyzer was used to evaluate the optical properties of the samples. Specimens were typically mounted on a microscope slide with a drop of immersion oil and a cover glass. Magnification was typically 250×. Observations of particle/crystal size and shape were recorded. The presence of birefringence was also noted.

[2] = Powder flow (Carr Index, tapped compressibility); assay type: physicochemical
From the text: The flow characteristics of the solid products of this invention can be measured by the Carr index [Pharmaceutical Preformulation and Formulation, A practical guide from candidate selection to commercial dosage form, Mark Gibson, Ed.; Interpharm Press, 2002; pages 386-7.) By subjecting a powder to mechanical forces, resistance to powder flow can be observed. The increase in bulk density (compressibility) of a powder subjected to tapping can be used to determine the Carr index. In some embodiments, the Polymorph A enriched valomaciclovir has a Carr index value range from about 35 to about 50.
By subjecting a powder to mechanical forces, resistance to powder flow can be observed. The increase in bulk density (compressibility) of a powder subjected to tapping can be used to determine the Carr index. This index was measured for each of the four recrystallized batches and tabulated below.
Powder flow characteristics were compared using the Carr Index. By subjecting a powder to mechanical forces, resistance to powder flow can be observed. The increase in bulk density (compressibility) of a powder subjected to tapping can be used to determine the Carr index. A summary of Carr indices and qualitative flow properties are summarized below in Table 13.
Batches were sieved to <1000 microns before testing. This was necessary to remove any clumps in the samples.

[3] = Polymorph screening study, summary of forms; assay type: physicochemical; details: Table 12 summary
Method: A polymorph screening study was performed on valomaciclovir active pharmaceutical ingredient. The screen entailed recrystallizing the material using solvent recrystallization, recrystallization from the melt, annealing experiments, and slurry experiments. Overall, the API was recrystallized under more than 100 different crystal growth conditions and analyzed using powder x-ray diffraction. A chemometric treatment of the x-ray data was used to categorize the samples into different groups. These groups were studied using thermal, optical, spectroscopic and other tools to elucidate which groups represent unique solid state forms of the API.
The raw diffraction data generated from the polymorph screening experiments (solvent recrystallization, recrystallization from the melt, annealing, non-competitive slurries) were initially categorized into 8 different groups using a chemometric treatment. Analyses of these different groups were used to perform additional experiments (e.g. DSC, TGA, HSM, NMR, etc.) to refine the groups identified by the chemometric treatment.

[4] = Competitive and non-competitive slurry experiments in ethanol (energy relationships); assay type: physicochemical
Method: Competitive slurry experiments were performed using mixtures (normally 50:50) of the forms in ethanol and agitating at approximately 25° C. for several days. Noncompetitive slurries were performed by agitating excess solids of one form in ethanol at room temperature. […] In both the competitive and noncompetitive slurry experiments, the solids were vacuum filtered and analyzed by XRD. The XRD patterns are used to determine if the undissolved solids had transformed into a different polymorphic form. In one case, a different polymorphic form emerged that was different than either of the two forms initially present. This indicates both original forms were metastable to the final form isolated.

[5] = Powder flow (Carr Index, tapped compressibility); assay type: physicochemical; details: visual observation
[6] = Water solubility / lipophilicity of the API; assay type: physicochemical
[7] = human, multiple dosing, total daily doses of up to 6.0 g; cited from earlier work
zoster = details: suspension, 250, 500 and 750 mg BID for 7 days, zoster patients, acyclovir control; cited from earlier work
HSV-I = details: cited from earlier work
Epstein-Barr virus (EBV) = details: cited from earlier work
[8] = tested on: human varicella zoster virus (VZV); details: cited from earlier work
[9] = tested on: human herpesvirus-6 (HHV-6); details: cited from earlier work
HSV-2 = details: cited from earlier work
[10] = Table 2, earlier batches, no unit in table (microns)
[11] = Table 2, earlier valomaciclovir batches, sieved to <1000 microns

Description (stability class of the polymorphic form) [3]: Metastable Polymorph
Structure (SMILES): CCCCCCCCCCCCCCCCCC(=O)OCC(CCn1cnc2c(=O)[nH]c(N)nc21)COC(=O)C(N)C(C)C (stereo not shown) [Form B3]

Description (stability class of the polymorphic form) [3]: Metastable Polymorph
Structure (SMILES): CCCCCCCCCCCCCCCCCC(=O)OCC(CCn1cnc2c(=O)[nH]c(N)nc21)COC(=O)C(N)C(C)C (stereo not shown) [Form B4]

Description (stability class of the polymorphic form) [3]: Metastable Polymorph
Structure (SMILES): CCCCCCCCCCCCCCCCCC(=O)OCC(CCn1cnc2c(=O)[nH]c(N)nc21)COC(=O)C(N)C(C)C (stereo not shown) [Form B1]

Description (stability class of the polymorphic form) [3]: Metastable Polymorph
Structure (SMILES): CCCCCCCCCCCCCCCCCC(=O)OCC(CCOC(=O)C(N)C(C)C)Cn1cnc2c(=O)[nH]c(N)nc21 (stereo not shown) [Form B2]

The remaining lines, values behind:

Structure (SMILES): CCCCCCCCCCCCCCCCCC(=O)OCC(CCOC(=O)C(N)C(C)C)Cn1cnc2c(=O)[nH]c(N)nc21 (stereo not shown) [Batch 52772-2-7]
Typical Particle Size Range ([1]; Table 4, recrystallized samples, in silicone oil, no unit in table, listed as 52772-2-7): 20-50
Carr Index ([2]; Table 4, recrystallized samples (ethanol or SDA 3C), listed as 52772-2-7): 53

Structure (SMILES): CCCCCCCCCCCCCCCCCC(=O)OCC(CCn1cnc2c(=O)[nH]c(N)nc21)COC(=O)C(N)C(C)C (stereo not shown) [Form H]
Relative solubility of polymorphic forms (in words) [4]: more soluble
Thermodynamic stability (in words) [4]: less thermodynamically stable than the B polymorphs

Structure (SMILES): CCCCCCCCCCCCCCCCCC(=O)OC[C@H](CCOC(=O)[C@@H](N)C(C)C)Cn1cnc2c(=O)[nH]c(N)nc21 [Batch 146756]
Handleability and powder flow [5]: poor handleability and poor powder flow
Agglomerate Size [1, 10]: 200
Typical Particle Size Range [1, 10]: 5-20
Flowability (in words) [2]: extremely poor flowability
Carr Index [2, 11]: 64

Structure (SMILES): CCCCCCCCCCCCCCCCCC(=O)OC[C@H](CCOC(=O)[C@@H](N)C(C)C)Cn1cnc2c(=O)[nH]c(N)nc21 [Batch 52772-5-8]
Typical Particle Size Range ([1]; Table 4, recrystallized samples, in silicone oil, no unit in table, listed as 52772-5-8): 35-50
Carr Index ([2]; Table 4, recrystallized samples (ethanol or SDA 3C), listed as 52772-5-8): 44

Structure (SMILES): CCCCCCCCCCCCCCCCCC(=O)OC[C@H](CCOC(=O)[C@@H](N)C(C)C)Cn1cnc2c(=O)[nH]c(N)nc21 [Batch 52772-8-10]
Typical Particle Size Range ([1]; Table 4, recrystallized samples, in silicone oil, no unit in table, listed as 52772-8-10): 150-300
Carr Index ([2]; Table 4, recrystallized samples (ethanol or SDA 3C), listed as 52772-8-10): 38

Structure (SMILES): CCCCCCCCCCCCCCCCCC(=O)OC[C@@H](CCn1cnc2c(=O)[nH]c(N)nc21)COC(=O)[C@@H](N)C(C)C [Form A]
Thermodynamic stability (in words) ([4]; from slurry experiments and thermal behaviour): most stable polymorphic form; also recorded: more thermodynamically stable than the B polymorphs; also recorded: thermodynamically stable form
Thermodynamic stability (in words) ([4]; from slurry experiments and thermal behaviour, listed as Polymorph A): thermodynamically the most stable polymorph of valomaciclovir
Relative solubility of polymorphic forms (in words) ([4]; inferred from slurry conversion / enantiotropic relationship): less soluble
Flowability (in words) ([2]; listed as Polymorph A): more flowable
Flowability (in words) ([2]; listed as Polymorph A enriched valomaciclovir): good flow characteristics
Description (stability class of the polymorphic form) [3]: Thermodynamically

Structure (SMILES): CCCCCCCCCCCCCCCCCC(=O)OC[C@H](CCOC(=O)[C@@H](N)C(C)C)Cn1cnc2c(=O)[nH]c(N)nc21 [valomaciclovir, L-valine, (3R)-3-[(2-amino-1,6-dihydro-6-oxo-9H-purin-9-yl)methyl]-4-[(1-oxooctadecyl)oxy]butyl ester]
Lipophilicity (in words) [6]: fairly lipophilic
Solubility in water (in words) ([6]; water): practically insoluble in water
Safety and tolerability [7]: safe and well tolerated
Zoster lesion healing (zoster): proof-of-concept for zoster lesion healing

Structure (SMILES): CCCCCCCCCCCCCCCCCC(=O)OCC(CCOC(=O)C(N)C(C)C)Cn1cnc2c(=O)[nH]c(N)nc21 (stereo not shown) [Batch 52772-3-17]
Typical Particle Size Range ([1]; Table 4, recrystallized samples, in silicone oil, no unit in table, listed as 52772-3-17): 10-30
Carr Index ([2]; Table 4, recrystallized samples (ethanol or SDA 3C), listed as 52772-3-17): 56

Structure (SMILES): CCCCCCCCCCCCCCCCCC(=O)OC[C@@H](CCn1cnc2c(=O)[nH]c(N)nc21)COC(=O)[C@@H](N)C(C)C [Batch 12-03-018]
Agglomerate Size [1, 10]: 100
Typical Particle Size Range [1, 10]: 5-40
Carr Index [2, 11]: 48

Structure (SMILES): Nc1nc2c(ncn2C[C@H](CO)CCO)c(=O)[nH]1 [Form H2G]
Antiviral activity (in words) (HSV-I): potent activity
Antiviral activity (in words) (Epstein-Barr virus (EBV)): potent activity
Antiviral activity (in words) [8]: potent activity
Antiviral activity (in words) [9]: potent activity
Antiviral activity (in words) (HSV-2): potent activity
